Calls of active or inactive are those of the source.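 How the source made its calls: active means chemicals rated mutagenic or weakly mutagenic in the Salmonella bacterial test by one literature review, or positive overall by another; inconclusive means no clear call, values can overlap the other calls; inactive means the rest.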
Test system: Salmonella typhimurium Ames mutagenicity, literature compiled
Assay: DSSTox (CPDBAS) Carcinogenic Potency Database Salmonella Mutagenicity
Method in brief: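 Literature-compiled Salmonella result: chemical called active if rated overall "mutagenic" or "weakly mutagenic" by Zeiger or overall "positive" by the EPA Gene-Tox Program.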

Row | Compound | outcome
1 | Cc1ccc(N)cc1 | active
2 | Brc1c(Br)c(Br)c(Oc2c(Br)c(Br)c(Br)c(Br)c2Br)c(Br)c1Br | inactive; active
3 | Cc1cccc(N)c1 | inactive
4 | Nc1ccc(-c2ccccc2)cc1 | active
5 | CCCCCCCCCCCCN(C)N=O | active
6 | O=C(O)CN(CC(=O)O)CC(=O)O | inactive; active
7 | ClC(Cl)=C(Cl)Cl | inactive; active
8 | CCNC(=O)Nc1ncc([N+](=O)[O-])s1 | active; inactive
9 | CCCCCCCCS(=O)C(C)Cc1ccc2c(c1)OCO2 (stereo not drawn) | inactive; active
10 | CCCC[N+](=O)[O-] | inactive; active
11 | O=NN(CCCl)C(=O)N[C@@H]1[C@@H](O)[C@H](O)[C@@H](CO)O[C@@H]1O | active; inactive
12 | CC(C)(Oc1ccc(C2CCCc3ccccc32)cc1)C(=O)O (stereo not drawn) | inactive
13 | CC(C)N(C(=O)SC/C(Cl)=C/Cl)C(C)C | active
14 | C=C(C)[C@H]1CC=C(C)C(=O)C1 | inactive; active
15 | CN(C)C(=O)Nc1ccc(Cl)cc1 | inactive; active
16 | Cc1c(N)cccc1N | active; inactive
17 | CCCN(CCC)N=O | active
18 | C[C@H]1CCCC(=O)CCC/C=C/c2cc(O)cc(O)c2C(=O)O1 | inactive; active
19 | C=C1C/C(=C/C)C(=O)O[C@@H]2CCN3CC=C(COC(=O)[C@@]1(O)CO)[C@H]23 | active; inactive
20 | COc1cc2c(c3oc4cccc(O)c4c(=O)c13)C1C=COC1O2 (stereo not drawn) | active; inactive
21 | ClCC(Cl)CCl | active; inactive
22 | NC(=O)/C(=C\c1ccc([N+](=O)[O-])o1)c1ccco1 | active
23 | N#Cc1c(Cl)c(Cl)c(Cl)c(C#N)c1Cl | inactive
24 | Cc1ccc(C)c(N)c1 | active; inactive

Row | Compound | outcome
25 | c1ccc(C2CO2)cc1 (stereo not drawn) | active; inactive
26 | ClC(Cl)Br | active
27 | COP(=O)(OC)OC=C(Cl)Cl | active; inactive
28 | Nc1ccccc1-c1ccccc1 | active
29 | Cc1ccc(O)c(O)c1 | inactive; active
30 | Cc1cc2ncccc2c2nc(N)n(C)c12 | active
31 | Nc1ccc([N+](=O)[O-])cc1N | active
32 | CC1=CC(=C(c2ccc(N)cc2)c2ccc(N)cc2)C=CC1=N | active; inactive
33 | O=C/C=C/c1ccccc1 | inactive
34 | C=C(C)[C@H]1CC=C(C)CC1 | inactive; active
35 | CCOP(=S)(OCC)Oc1cc(C)nc(C(C)C)n1 | inactive; active
36 | O=C1O[C@H]([C@@H](O)CO)C(O)=C1O | inactive
37 | O=C1c2ccccc2C(=O)N1SC(Cl)(Cl)Cl | active
38 | O=C1CCC(=O)O1 | inactive; active
39 | COc1ccc(N)cc1 | active; inactive
40 | COC(=O)C1=CCCN(N=O)C1 | active
41 | CCCN(CCC)c1c([N+](=O)[O-])cc(C(F)(F)F)cc1[N+](=O)[O-] | active
42 | O=C1C(c2[nH]c3ccc(S(=O)(=O)O)cc3c2O)=Nc2ccc(S(=O)(=O)O)cc21 | inactive
43 | CC(Cl)Cl | inactive; active
44 | CS(=O)(=O)OCCCCOS(C)(=O)=O | active
45 | Nc1ccc(Nc2ccccc2)cc1 | inactive; active
46 | O=C1C2CC=CCC2C(=O)N1SC(Cl)(Cl)Cl (stereo not drawn) | active
47 | C=C(C)C#N | inactive; active
48 | O=C1OC(=O)c2ccccc21 | inactive; active

Row | Compound | outcome
49 | O=[N+]([O-])c1ccc(-c2nc(NCCO)c3ccccc3n2)s1 | active
50 | C[C@](N)(Cc1ccc(O)c(O)c1)C(=O)O | inactive
51 | Nc1ccc(Sc2ccc(N)cc2)cc1 | active; inactive
52 | C=Cc1ccccc1 | active; inactive
53 | CCCCOC(=O)c1ccccc1C(=O)OCc1ccccc1 | inactive
54 | NC(N)=NC(N)=NCCc1ccccc1 | inactive; active
55 | N=C1C=CC(=C(c2ccc(N)cc2)c2ccc(N)cc2)C=C1 | active
56 | COc1ccc(N)c(OC)c1 | active; inactive
57 | CN(C)c1ccc(C(=N)c2ccc(N(C)C)cc2)cc1 | active
58 | O=C(O)CC[N+](=O)[O-] | active; inactive
59 | CC(C)CCC[C@@H](C)[C@H]1CC[C@H]2[C@@H]3CC=C4C[C@@H](OC(=O)Cc5ccc(N(CCCl)CCCl)cc5)CC[C@]4(C)[C@H]3CC[C@]12C | inactive; active
60 | Clc1ccc(Cl)cc1 | inactive
61 | O=[N+]([O-])c1ccc2c(c1)Cc1ccccc1-2 | active
62 | OC(c1ccc(Cl)cc1)(c1ccc(Cl)cc1)C(Cl)(Cl)Cl | inactive; active
63 | CCN(CC)C(=O)c1cccc(C)c1 | inactive; active
64 | O.O=S(=O)([O-])[O-].[Mn+2] | inactive; active
65 | ClC(Cl)C(Cl)Cl | inactive; active
66 | c1ccc(Nc2ccc(Nc3ccccc3)cc2)cc1 | active; inactive
67 | CC(C)(C)c1cc(O)ccc1O | inactive
68 | Cn1cnc([N+](=O)[O-])c1Sc1ncnc2nc[nH]c12 | active
69 | C=CCO | inactive
70 | CCCN(N=O)C(=N)N[N+](=O)[O-] | active; inactive
71 | CCCCN(CCCC)N=O | active; inactive
72 | O=c1c(O)c(-c2ccc(O)c(O)c2)oc2cc(O)cc(O)c12 | active; inactive

Row | Compound | outcome
73 | C=CCc1ccc(O)c(OC)c1 | inactive
74 | FC(F)OC(Cl)C(F)(F)F (stereo not drawn) | inactive
75 | c1ccc2occc2c1 | inactive; active
76 | O=Nc1ccc(Nc2ccccc2)cc1 | active
77 | CCOC(=O)CC(SP(=O)(OC)OC)C(=O)OCC (stereo not drawn) | inactive
78 | O=C(O)Cc1c[nH]c2ccccc12 | inactive
79 | O[C@@H]([C@H](O)[C@@H](O)CBr)[C@@H](O)CBr | active
80 | COc1cc2c(c3oc(=O)c4c(c13)CCC4=O)C1C=COC1O2 (stereo not drawn) | active
81 | ClCC1CO1 (stereo not drawn) | active; inactive
82 | COc1ccc(O)c(C(C)(C)C)c1 | inactive; active
83 | [O]=[Cr](=[O])([OH])[O][Cr](=[O])(=[O])[OH] | active
84 | O=S1(=O)OCCO1 | inactive
85 | CCN(C)N=O | active
86 | CN(C)c1ccc(N=Nc2ccccc2)cc1 | active; inactive
87 | CN(C)Nc1nc(-c2ccc([N+](=O)[O-])o2)cs1 | active; inactive
88 | O=S(=O)(c1ccc(Cl)cc1)c1ccc(Cl)cc1 | inactive
89 | OB(O)O | inactive
90 | Nc1ncn([C@@H]2O[C@H](CO)[C@@H](O)[C@H]2O)c(=O)n1 | active
91 | O=[N+]([O-])c1ccc(Nc2ccc(Nc3ccccc3)c(S(=O)(=O)O)c2)c([N+](=O)[O-])c1 | active; inactive
92 | ClC1=C(Cl)[C@@]2(Cl)[C@@H]3[C@@H](Cl)[C@H](Cl)C[C@@H]3C1(Cl)C2(Cl)Cl | inactive; active
93 | C=CC(=O)O | inactive
94 | [Cl-].[Cl-].[Cl-].[Fe+3] | inactive
95 | O=C1CCCCC1 | inactive; active
96 | COC(=O)c1ccc(C(=O)OC)cc1 | inactive; active

Row | Compound | outcome
97 | C=C(F)F | active
98 | CCOC(=O)CC(SP(=S)(OC)OC)C(=O)OCC (stereo not drawn) | inactive
99 | C#C[C@]1(O)CC[C@H]2[C@@H]3CCc4cc(OC)ccc4[C@H]3CC[C@@]21C | inactive
100 | ClC=C(Cl)Cl | inactive; active
101 | CCOP(=S)(OCC)Oc1nc(Cl)c(Cl)cc1Cl | inactive
102 | N[C@@H](CCC(=O)O)C(=O)O | inactive; active
103 | CCCCCc1cc(O)c2c(c1)OC(C)(C)[C@@H]1CCC(C)=C[C@@H]21 | inactive; active
104 | C1CC2OC2CC1C1CO1 (stereo not drawn) | active
105 | C[C@]12CC[C@@H]3c4ccc(O)cc4CC[C@H]3[C@@H]1CC[C@@H]2O | inactive
106 | O=C/C(Cl)=C(/Cl)C(=O)O | active
107 | CC1=C2C(=CO[C@@H](C)[C@@H]2C)C(=O)C(C(=O)O)=C1O | inactive; active
108 | NCCNc1cccc2ccccc12 | active
109 | c1ccncc1 | inactive
110 | O=[N+]([O-])c1cccc2ccccc12 | active
111 | Cc1cc(O)c2c(c1)C(=O)c1cc(O)cc(O)c1C2=O | active
112 | COc1ccc(C(c2ccc(OC)cc2)C(Cl)(Cl)Cl)cc1 | inactive; active
113 | CC(=O)[O][Hg][c]1ccccc1 | inactive; active
114 | CCCOC(=O)c1cc(O)c(O)c(O)c1 | inactive
115 | C=C(Cl)CSC(=S)N(CC)CC | active; inactive
116 | C=C(C)C | inactive
117 | c1ccc2cc(Nc3ccc(Nc4ccc5ccccc5c4)cc3)ccc2c1 | active
118 | Cc1cccc(C)c1N | active

— PubChem BioAssay AID1194 (EPA DSSTox, 2008)
